Assays:
[1] = oral intake; 'it is believed'; cited from earlier work
[2] = tested on: 'restless legs' and intermittent leg cramps; conditions: Week 3-4; scale 0 to 100
Description: A person suffered from ‘restless legs’ and intermittent leg cramps during sleep.
Each week the subject was asked to rate the intensity of the problem on a consistent rating scale with ‘0’ indicating no problem and ‘100’ indicating the most severe expression of the condition.

[O]=[Mg] [magnesium oxide]
fraction of elemental magnesium absorbed for use by the body [1]: 3 to 12%

choline citrate
Ave. intensity of leg cramp related difficulty [2]: 83

Source: patent publication US20130022673A1, “ENHANCEMENT OF MAGNESIUM UPTAKE IN MAMMALS” (priority 2003, published 2013)
